According to ChEMBL document CHEMBL5120770, “Sarubicinols A-C, Cytotoxic Benzoxazoles from a Streptomyces” (J Nat Prod, 2022):
pIC50: −log10 of the molar value.

Experiments:
Type in all cases: functional, cell-based
4T1 = assay: Cytotoxicity against mouse 4T1 cells assessed as cell growth inhibition incubated for 72 hrs by CCK8 assay; details: 4T1, 72 h
HCT-116 = assay: Cytotoxicity against human HCT-116 cells assessed as cell growth inhibition incubated for 72 hrs by CCK8 assay; details: HCT-116, 72 h
HepG2 = assay: Cytotoxicity against human HepG2 cells assessed as cell growth inhibition incubated for 72 hrs by CCK8 assay; details: HepG2, 72 h
A549 = assay: Cytotoxicity against human A549 cells assessed as cell growth inhibition incubated for 72 hrs by CCK8 assay; details: A549, 72 h

SMILES	pIC50 (4T1)	pIC50 (HCT-116)	pIC50 (HepG2)	pIC50 (A549)
CC(=O)c1cccc2c1C(=O)C(N)=C(C(N)=O)C2=O	5.12	4.83	5.20	4.87
C[C@H]1O[C@@H]2C[C@@H](O)[C@@]1(O)c1c2c(O)c(C(N)=O)c2nc([C@@H](O)[C@@H](O)CO)oc12	5.37	5.36	5.25	5.32
CC(O)c1cccc2c1C(=O)C(N)=C(C(N)=O)C2=O (stereo unspecified)	5.89	5.68	5.72	6.05
NC(=O)C1=C(N)C(=O)c2c(O)cccc2C1=O	4.83	4.94	5.05	5.08
C[C@H]1O[C@@H]2C[C@@H](O)[C@@]1(O)C1=C2C(=O)C(C(N)=O)=C(N)C1=O	6.05	6.15	5.92	5.85
C[C@H]1O[C@@H]2C[C@@H](O)[C@@]1(O)c1c2c(O)c(C(N)=O)c2ncoc12	5.24	5.17	4.91	5.14
C[C@H]1O[C@@H]2C[C@@H](O)[C@@]1(O)c1c2c(O)c(C(N)=O)c2nc([C@@H](O)CO)oc12	5.32	5.25	5.05	5.19
COc1cccc2c1C(=O)c1c(O)c3c(c(O)c1C2=O)C[C@@](O)(C(=O)CO)C[C@@H]3O[C@H]1C[C@H](N)[C@H](O)[C@H](C)O1 [DOXORUBICIN]	7.05	7.10	6.89	
